Experimental findings from patent US20170095440A1, “METHOD OF TREATING CANINE PANCREATITIS” (CK9, LLC, priority 2014, published 2017) are described below.

Several values for one entry are separate records, joined by “and”; a condition that tells them apart may be missing. Identical values can stand only once. Entries after “also recorded” stand apart in the source; their conditions may differ.

Data set [1] concerns dogs with suspected chronic pancreatitis. As to the kind of experiment: Serum cTLI before and after treatment, clinical trial. In kind it is in vivo, dog. On the procedure: Treatment effects on overall health status, quality of life, and clinical signs were also evaluated with serum biochemistry profiles, complete blood counts, and owner questionnaires.
Dogs were identified by screening current submissions to the Gastrointestinal Laboratory at Texas A&M indicative of pancreatitis (canine pancreas-specific lipase≧400 μg/L) using an immunoassay for measurement of canine pancreas-specific lipase in canine serum known as the spec CPL® Test (IDEXX, Laboratories). A number of potential study participants were directly referred to the investigator by veterinarians, based on positive pet-side SNAP cPL® Test (IDEXX Laboratories, Westbrook, Me., USA) results and concomitant clinical signs. After ascertaining individual suitability of a patient with the referring veterinarian, serum canine pancreas-specific lipase concentration, serum biochemistry profile, and complete blood count were evaluated or re-evaluated 12±4 days after collection of the initial sample submission to the Gastrointestinal Laboratory. Based on the assumption that consecutive canine pancreas-specific lipase elevations indicate chronic pancreatitis, enrollment was offered for patients with canine pancreas-specific lipase concentrations≧400 μg/L, serum triglyceride concentrations below 500 mg/dL, and no indication of hepatic, renal, or other organ disease. […] Owner consent was required prior to phlebotomy and for enrollment into the trial.
[…] […] Individual patients were medicated for between 21 to 31 days.
Blood samples were collected before beginning the treatment and after completion of the treatment period. Complete blood count (red blood cell count, hematocrit, mean corpuscular volume, mean corpuscular hemoglobin, mean corpuscular hemoglobin concentration, differential and absolute white blood cell count, red blood cell count, hemoglobin, platelet estimate, red blood cell morphology, white blood cell morphology, and hemoparasites) was evaluated at the Texas Veterinary Medical Diagnostic Laboratory (TVMDL). A serum chemistry profile with electrolytes (glucose, blood urea nitrogen, creatinine, calcium, phosphorus, albumin, total protein, total bilirubin, alkaline phosphatase, alanine amino transferase, aspartate amino transferase, γ-glutamyl transferase, cholesterol, triglycerides, globuline, sodium, potassium, and chloride) was performed on a SIRRUS analyzer (Stanbio, Boerne, Tex., USA). Serum concentrations of cPL (RI: 0-200 μg/L; Spec cPL® IDEXX Laboratories, Westbrook, Me., USA), cTLI (RI: 5.7-45.2 μg/L; Canine TLI DOUBLE ANTIBODY®, Siemens Healthcare Diagnostics, Los Angeles, Calif., USA), cobalamin (RI: 251-908 ng/L), and folate (RI: 7.7-24.4 μg/L; Immulite 2000®, Siemens Healthcare Diagnostics Inc., Deerfield, Ill., USA), canine specific C-reactive protein (RI: 0-7.6 mg/L, Tridelta Development Limited, Maynooth, CO. Kildare, Ireland), S100A12 (RI: 56-331 μg/L, Gastrointestinal Laboratory in-house radioimmunoassay), and TGF-β1 (RI: 38-72 ng/mL; Quantikine® ELISA, R&D Systems, Minneapolis, […]., USA) were performed at the Gastrointestinal Lab at Texas A&M University.
Pre-treatment and post-treatment results for all diagnostic tests were statistically analyzed using Prism 6 (GraphPad Software, La Jolla, Calif., USA). The D'Agostino-Pearson omnibus test was used to evaluate all datasets for Gaussian distribution. Groups were compared using a paired t-test for normally-distributed data sets and a Wilcoxon matched-pairs test when Gaussian distribution could not be assumed. Mean values and standard deviation are reported for data sets with Gaussian distribution. Median and minimum/maximum values are reported for data sets where Gaussian distribution could not be assumed. The significance threshold was set at p=0.05.

Data set [2] relates to Beagle dogs. Put plainly: Rising-dose tolerance study, oral capsule. In kind it is in vivo, dog. On the procedure: The following parameters and end points were evaluated in the rising-dose phase of this study: clinical signs, body weights, body weight changes, food consumption, electrocardiography, clinical pathology parameters (hematology, clinical chemistry, and urinalysis), and gross necropsy findings.
3 male and 3 female Beagle dogs were received from Marshall BioResources, North Rose, N.Y. The animals were examined and weighed on the day following receipt. The rising-dose phase animals were 6 months old and weighed 7.5 kg and 8.3 kg at initiation of dosing. The multiple-dose phase animals were 7 months old and weighed 7.4 kg and 7.6 kg at initiation of dosing.
For the rising-dose phase, the test article was administered to the appropriate animals by oral capsule. At least a 3-day washout period was maintained before proceeding to the next dose level; therefore, dosing occurred on Days 1, 5, 9, 15, and 19. The dose amount for each animal was based on the most recent body weight measurement. The first day of dosing was designated as Study Day 1.
The animals were removed from the cage and a detailed clinical observation was performed daily, beginning during Week −1, 1 to 3 hours postdose on days of dosing. Each animal was weighed on the day of randomization and Days 1, 5, 9, 15, 19, and 22. Food consumption was quantitatively measured for each animal daily, starting Week −1, throughout the dosing period, except for on the day of scheduled euthanasia. Electrocardiogram (ECG) measurements were obtained from all animals using leads I, II, III, aVR, aVL, and aVF and a chart speed of 50 mm/second. The ECG measurements were obtained once pretreatment and at approximately 3 hours postdose on Days 1, 5, 9, 15, and 19. Only lead II was evaluated by a board-certified veterinary cardiologist.
Blood was collected by venipuncture of the jugular vein. Urine was collected overnight by cage pan drainage. After collection, samples were transferred to the clinical pathology laboratory for processing. The animals were fasted overnight prior to scheduled clinical pathology sample collections, but had access to water ad libitum. Samples were collected according to Table 5.
Rising-dose phase animals surviving until scheduled euthanasia were weighed, samples for evaluation of clinical pathology parameters were collected as specified above, and the animals were euthanized by sodium pentobarbital injection, followed by exsanguination. Animals were fasted overnight before their scheduled necropsy.
Rising-dose phase animals were subjected to a complete necropsy examination, which included evaluation of the carcass and musculoskeletal system; all external surfaces and orifices; cranial cavity and external surfaces of the brain; and thoracic, abdominal, and pelvic cavities with their associated organs and tissues. Necropsy examinations were conducted under the supervision of a board-certified veterinary pathologist.

Setting [3] is: following each dose, 10-250 mg/kg, methanesulfonate.

With `CN(C)C(=O)COC(=O)Cc1ccc(OC(=O)c2ccc(NC(=N)N)cc2)cc1` [Camostat Mesilate, N,N-dimethylcarbamoylmethyl-4-(4-guanidinobenzoyloxy)phenylacetate methanesulfonate], the “Change in serum cTLI, pre- vs post-treatment” value in data set [1] (4 mg/kg q 8 hrs, n=11, methanesulfonate) is “no significant difference; also recorded: did not change significantly”; in data set [1] (8 mg/kg q 8 hrs, n=17, methanesulfonate) it was “no significant difference; also recorded: No significant changes”; in data set [1] (all treated dogs combined, n=28, methanesulfonate) it was “no significant difference; also recorded: No significant changes”. The “Serum cTLI concentration post-treatment (median)” value in data set [1] (4 mg/kg q 8 hrs, n=11, pre-treatment median 22, post range 17-55, p=0.8311) is 28 µg/L; in data set [1] (8 mg/kg q 8 hrs, n=17, pre-treatment median 35, p=0.1594, methanesulfonate), 22 µg/L and 24 µg/L; in data set [1] (all treated dogs combined, n=28, pre-treatment median 32, post range 6-81, p=0.2098), 25 µg/L. The Clinical observations entry in data set [2] (10 mg/kg single oral dose) was “soft feces were noted in the female the day after dosing”; in data set [2] (30 mg/kg single oral dose) it was “no clinical observations noted”; in data set [2] (100 mg/kg single oral dose), “clear ocular discharge was observed in the female”; in data set [2] (200 mg/kg single oral dose, methanesulfonate), “slight salivation and soft feces/feces with mucoid material were observed in the male and female”; in data set [2] (250 mg/kg single oral dose, methanesulfonate), “severe salivation was observed following dosing in the male and female; also recorded: salivation and soft feces/feces with mucoid material”. For the same compound, the Gross necropsy findings entry in data set [2] (Day 22) is reported as “no gross necropsy findings”. Further, the Body weight entry in data set [2] (between doses, 10-250 mg/kg) is given as “no notable changes”. Also, in data set [2] (between doses, 10-250 mg/kg), the Food consumption result is reported as “no notable changes”. In addition, the “Clinical chemistry, potential test article-related changes” value in data set [2] (female, following the 200 and 250 mg/kg doses) is “increased creatine kinase”; in data set [2] (male, following the 250 mg/kg dose) it was “increased creatinine, total bilirubin, and urea nitrogen”. Further, the Hematology parameters result in data set [2] (setting [3]) was “no toxicologically meaningful changes; also recorded: no notable changes”. Also, the Urinalysis parameters entry in data set [2] (setting [3]) was “no toxicologically meaningful changes; also recorded: no notable changes”. Moreover, the Survival entry in data set [2] (single oral doses 10, 30, 100, 200, 250 mg/kg, 1 male and 1 female, methanesulfonate) was “No rising-dose phase animals died; also recorded: All animals survived to scheduled euthanasia”.
